Experimental data as given in patent US12396995B2, “Substituted 4-aminoisoindoline-1,3-dione compounds and second active agents for combined use” (Celgene Corporation, priority 2019, dated 2025).

Test system: WSU-DLCL2 DLBCL xenograft tumors
Experiment: WSU-DLCL2 (DLBCL) xenograft model, Compound 1 alone and with 5-azacytidine
Assay type: in vivo, female SCID mice
Description: Anti-tumor activity of Compound 1 alone and in combination with 5-azacytidine was studies in WSU-DLCL2 (DLBCL) xenograft model. Compound 1 (1 mg/kg) was administered once daily for 5 consecutive days followed by 2 days off (5 D on/2 D off) and 5-azacytidine (1 mg/kg) was administered once daily (QD). Compound 1 (1 mg/kg, 5 D on/2 D off) and 5-azacytidine (1 mg/kg, QD) inhibited WSU-DLCL2 DLBCL tumor growth.
Methods: Xenograft study was conducted with female SCID mice bearing WSU-DLCL2 DLBCL xenograft tumors. Female SCID mice were inoculated subcutaneously with WSU-DLCL2 cells in the flank region above the right hind leg. Following inoculation of animals, the tumors were allowed to grow to approximately 200 mm^3 prior to randomization. On day 14 following tumor cell inoculation, the mice bearing WSU-DLCL2 tumors ranging between 150 and 250 mm^3 were pooled together and randomized into various treatment groups. Compound 1 was formulated in 0.5% Methyl Cellulose, 0.25% Tween 80 and 50 mM Citrate pH 3 in water. 5-Azacytidine was formulated in 0.9% saline. Compound 1 (1 mg/kg) was orally administered with three cycles of once daily for 5 consecutive days followed by 2 days off starting from day 14 after tumor cell inoculation. […] Tumors were measured twice a week using calipers and tumor volumes were calculated using the formula of W^2×L/2. […]

**Q.** What does the source list for `O=C1CC[C@H](N2C(=O)c3cccc(NCc4ccc(CN5CC(N6CCOCC6)C5)cc4F)c3C2=O)C(=O)N1` [Compound 1, (S)-2-(2,6-dioxopiperidin-3-yl)-4-((2-fluoro-4-((3-morpholinoazetidin-1-yl)methyl)benzyl)amino)isoindoline-1,3-dione]?
**A.** combination antitumor activity (fractional product method) (Compound 1 1 mg/kg and 5-azacytidine 1 mg/kg): synergistic; tumor volume reduction compared to vehicle control (Compound 1 1 mg/kg in combination with 5-azacytidine 1 mg/kg): 74%
